# Values quoted from earlier work in patent publication US11529304B2, “Method for dyeing keratin material by means of a dyeing agent and an acidic posttreatment agent” (Henkel AG & Co. KGaA, priority 2018, dated 2022).
# Settings: for solubility in water: 25° C.
Molecule,solubility in water,solubility in water (in words) (at 25° C.)
"O=C([O-])c1c(Cl)c(Cl)c(Cl)c(Cl)c1-c1c2c(Br)cc(=O)c(Br)c-2oc2c(Br)c(O)cc(Br)c12.O=C([O-])c1c(Cl)c(Cl)c(Cl)c(Cl)c1-c1c2c(Br)cc(=O)c(Br)c-2oc2c(Br)c(O)cc(Br)c12.[Na+].[Na+] [Acid Red 92, disodium salt of 3,4,5,6-tetrachloro-2-(1,4,5,8-tetrabromo-6-hydroxy-3-oxoxanthen-9-yl)benzoic acid]",greater than 10 g/L,
"Nc1cc(S(=O)(=O)[O-])cc2cc(S(=O)(=O)[O-])c(N=Nc3ccccc3)c(O)c12.[Na+].[Na+] [Acid Red 33, diantrium salt of 5-amino-4-hydroxy-3-(phenylazo)-naphthalene-2,7-disulphonate]",2.5 mg/mL,
O=C([O-])C1=NN(c2ccc(S(=O)(=O)[O-])cc2)C(=O)C1N=Nc1ccc(S(=O)(=O)[O-])cc1.[Na+].[Na+].[Na+] (centres unmarked) [Acid Yellow 23],,highly soluble
"mixture of the sodium salts of mono- and sisulfonic acids of 2-(2-quinolyl)-1H-indene-1,3(2H)-dione [Acid Yellow 3]",20 mg/mL,
"O=S(=O)([O-])c1ccc(N=Nc2c(O)ccc3ccccc23)cc1.[Na+] [Acid Orange 7, sodium salt of 4-[(2-hydroxy-1-naphthyl)azo]benzene sulphonate]",more than 7 g/L,
